Results: patent US5786361A, “Pyridazino-, pyrimido-, pyrazino- and triazinoindoles, -pyrrolocycloalkenes or pyrrolooxocycloalkenes, or pyridopyrrolylpyrido compounds, compositions containing them, and use thereof to treat atherosclerosis” (Bayer Aktiengesellschaft, priority 1997, dated 1998)

Test system: HepG2 cells
Experiment: Inhibition of the release of ApoB-100-associated lipoproteins from liver cells (HepG2), immunoassay
Type: cell-based
Details: Homo sapiens; HepG2 culture supernatant; light adsorption at 450 nm vs solvent control; release of ApoB-100-associated particles
Description: 1. Inhibition of the release of ApoB-100-associated lipoproteins
The test for detecting the inhibition of the release of ApoB-100-associatedlipoproteins from liver cells was carried out in vitro using cultured liver cells, preferably using cells of the human line HepG2. These cells are cultured under standard conditions in medium for the culture of eucaryotic cells, preferably in RPMI 1640 with 10% foetal calf serum. HepG2 cells synthesize and secrete into the culture supernatant ApoB-100-associated lipoprotein particles which in principle are constructed similarly to the VLDL and LDL particles which are to be found in the plasma.
These particles can be detected using an immunoassay for human LDL. This immunoassay is carried out using antibodies which have been induced in rabbits against human LDL under standard conditions. The anti-LDL antibodies (rabbit anti-LDL-Ab) were purified by affinity chromatography on an immunosorbent using human LDL. These purified rabbit anti-LDL-Ab are adsorbed on the surface of plastic. Expediently, this adsorption takes place on the plastic surface of microtitre plates having 96 depressions, preferably on MaxiSorp plates. If ApoB-100-associated particles are present in the supernatant of Hep-G2 cells, these can bind to the insolubilized rabbit anti-LDL-Abs, and an imunune complex results which is bound to the plastic surface. Unbound proteins are removed by washing. The immune complex on the plastic surface is detected using monoclonal antibodies which have been induced against human LDL under standard conditions and purified. These antibodies were conjugated to the enzyme peroxidase. Peroxidase converts the colourless substrate TMB into a coloured product in the presence of H2 O2. After acidification of the reaction mixture with H2 SO4, the specific light adsorption at 450 nm is determined, which is a measure of the amount of ApoB-100-associated particles which have been secreted into the culture supernatant by the HepG2 cells.
The IC50 value indicates at which substance concentration the light adsorption is inhibited by 50% in comparison with the control (solvent control without substance).

| SMILES | IC50 [nM] |
| --- | --- |
| Cn1c(=O)c2c(c3ccccc3n2Cc2ccc([C@@H](C(=O)N[C@@H](CO)c3ccccc3)C3CCCC3)cc2)n(C)c1=O (mixture of isomers) [Example 2, 2-(R)- and 2-(S)-2-Cyclopentyl-2-(4-{1,3-dimethyl-1,5-dihydro-2,4-oxo-pyrimido-[5,4-b]indol-5-yl-methyl}phenyl)-aceticacidN-(2-hydroxy-1-(R)-1-phenyl-ethyl)amide] | 1.1 |
| Cc1nc(C)c2c3ccccc3n(Cc3ccc([C@@H](C(=O)N[C@@H](CO)c4ccccc4)C4CCCC4)cc3)c2n1 [Example 6] | 0.8 |
| Cc1nc(C)c2c3ccccc3n(Cc3ccc(C(C(=O)NCc4ccncc4)C4CCCC4)cc3)c2n1 (centres unmarked) [Example 10] | 1 |
| Cn1c(=O)c2c3ccccc3n(Cc3ccc([C@H](C(=O)N[C@@H](CO)c4ccccc4)C4CCCC4)cc3)c2c(=O)n1C [Example 16] | 8.9 |
| CSc1nnc2c3ccccc3n(Cc3ccc(C(C(=O)N[C@@H](CO)c4ccccc4)C4CCCC4)cc3)c2n1 (some centres unmarked) [Example 26] | 1.8 |
